Marks after values point to notes of the source that are not given here.
System: C. tropicalis strain H5343
Experiment: Toxicity tests of substrates (growth by absorbance at 600 nm, streak plates)
Format: cell-based
Conditions: for ABS 600.0 nm: 48 h, 30° C., dilution in YPD 1:100
Description: The toxicity test used here was similar to that used for the solvents described in Example 1. The goal was to determine the highest concentration at which a substrate could be added to a culture broth without being toxic, inhibiting growth, or interfering with the bioconversion process. C. tropicalis strain H5343 was grown in the presence of the substrate at different concentrations and growth was monitored spectrophotometrically. In order to determine if the substrate was lethal or was simply inhibiting growth, the cultures were examined under the microscope and streak plates of YPD and LB agar were prepared. Contamination of the culture with an unwanted organism could also be detected using this approach.
6 ml was transferred to the first tube and 3 ml to the rest. 1% substrate was added to the first tube and then serially diluted to give concentrations from 1% to 0.015%. Since the last tube was initially empty, the concentration in the last two tubes was the same. […] As a growth-control one culture without substrate was inoculated.
To determine if contamination had occurred, each culture was examined under the microscope and streak plates of both YPD and LB were made from the 1% and the inoculated 0.015% tube.

[1] = substrate concentration 0.01563%
[2] = substrate concentration 0.0313%

For `CCCCCCCCC(=O)CCCCCCCC` [9-Heptadecanone], the “ABS 600.0 nm” value [1] was 0.100, the “ABS 600.0 nm” value [2] was 0.120 and the “ABS 600.0 nm” value (substrate concentration 0.063%) was 0.064. The “ABS 600.0 nm” value (substrate concentration 0.13%) was 0.103, the “ABS 600.0 nm” value (substrate concentration 0.25%) was 0.120 and the “ABS 600.0 nm” value (substrate concentration 0.5%) was 0.073. The “ABS 600.0 nm” value (substrate concentration 1%) was 0.004**.

For `CCCCCCCCCCCCO` [1-Dodecanol], the “ABS 600.0 nm” value [1] was 0.000, the “ABS 600.0 nm” value [2] was 0.000 and the “ABS 600.0 nm” value (substrate concentration 0.063%) was 0.000. For the same compound, the “ABS 600.0 nm” value (substrate concentration 0.13%) was 0.004, the “ABS 600.0 nm” value (substrate concentration 0.25%) was 0.032** and the “ABS 600.0 nm” value (substrate concentration 0.5%) was 0.013**. For the same compound, the “ABS 600.0 nm” value (substrate concentration 1%) was 0.267**.

In the case of `C=C[C@](C)(O)CC[C@@H]1[C@@]2(C)CCCC(C)(C)[C@@H]2CC[C@@]1(C)O` [Indu-Extrakt-sclareol, sclareol], the “ABS 600.0 nm” value [1] was 0.083, the “ABS 600.0 nm” value [2] was 0.100 and the “ABS 600.0 nm” value (substrate concentration 0.063%) was 0.157. The “ABS 600.0 nm” value (substrate concentration 0.13%) was 0.106, the “ABS 600.0 nm” value (substrate concentration 0.25%) was 0.110 and the “ABS 600.0 nm” value (substrate concentration 0.5%) was 0.092. The “ABS 600.0 nm” value (substrate concentration 1%) was 0.083.

`C=CCCCCCCCCCCCC` [C14 a-Olefin, 1-tetradecene] was tested, and the “ABS 600.0 nm” value [1] was 0.061, the “ABS 600.0 nm” value [2] was 0.084 and the “ABS 600.0 nm” value (substrate concentration 0.063%) was 0.085. The “ABS 600.0 nm” value (substrate concentration 0.13%) was 0.097, the “ABS 600.0 nm” value (substrate concentration 0.25%) was 0.115 and the “ABS 600.0 nm” value (substrate concentration 0.5%) was 0.084. For the same compound, the “ABS 600.0 nm” value (substrate concentration 1%) was 0.087.

In the case of `CCCCCCCCCCCCN` [Dodecyclamine, Dodecylamine], the “Toxic at (concentration)” value (Phase I screening summary) was “Toxic at 0.01%”, the “ABS 600.0 nm” value [1] was 0.000 and the “ABS 600.0 nm” value [2] was 0.000. The “ABS 600.0 nm” value (substrate concentration 0.063%) was 0.000, the “ABS 600.0 nm” value (substrate concentration 0.13%) was 0.000 and the “ABS 600.0 nm” value (substrate concentration 0.25%) was 0.000. The “ABS 600.0 nm” value (substrate concentration 0.5%) was 0.000 and the “ABS 600.0 nm” value (substrate concentration 1%) was 0.000.

In the case of `C=C(C)[C@H]1CC=C(C)CC1` [R(+) limonene], the “ABS 600.0 nm” value [1] was 0.123, the “ABS 600.0 nm” value [2] was 0.117 and the “ABS 600.0 nm” value (substrate concentration 0.063%) was 0.106. For the same compound, the “ABS 600.0 nm” value (substrate concentration 0.13%) was 0.007, the “ABS 600.0 nm” value (substrate concentration 0.25%) was 0.000 and the “ABS 600.0 nm” value (substrate concentration 0.5%) was 0.000. For the same compound, the “ABS 600.0 nm” value (substrate concentration 1%) was 0.000.

For `CCCCCCC(O)CCCCCCCCCCC(=O)O` (stereo not shown) [12-Hydroxystearic acid], the “ABS 600.0 nm” value (substrate concentration 1%) was 0.120.

For `C=C(C)[C@@H]1CC=C(C)CC1` [S(−) limonene], the “ABS 600.0 nm” value [1] was 0.104, the “ABS 600.0 nm” value [2] was 0.094 and the “ABS 600.0 nm” value (substrate concentration 0.063%) was 0.011. The “ABS 600.0 nm” value (substrate concentration 0.13%) was 0.002, the “ABS 600.0 nm” value (substrate concentration 0.25%) was 0.000 and the “ABS 600.0 nm” value (substrate concentration 0.5%) was 0.002. The “ABS 600.0 nm” value (substrate concentration 1%) was 0.002.

With `CCCCCCCCCCCCCCCCOC(C)=O` [Hexadecyl acetate] the “ABS 600.0 nm” value [1] was 0.110, the “ABS 600.0 nm” value [2] was 0.104 and the “ABS 600.0 nm” value (substrate concentration 0.063%) was 0.089. For the same compound, the “ABS 600.0 nm” value (substrate concentration 0.13%) was 0.083, the “ABS 600.0 nm” value (substrate concentration 0.25%) was 0.110 and the “ABS 600.0 nm” value (substrate concentration 0.5%) was 0.103. For the same compound, the “ABS 600.0 nm” value (substrate concentration 1%) was 0.155.

With `CCCCCCCCCC(CCCCCCC)C(=O)O` (stereo not shown) [2-Heptylundecanoic acid] the “ABS 600.0 nm” value [1] was 0.082, the “ABS 600.0 nm” value [2] was 0.077 and the “ABS 600.0 nm” value (substrate concentration 0.063%) was 0.077. The “ABS 600.0 nm” value (substrate concentration 0.13%) was 0.043, the “ABS 600.0 nm” value (substrate concentration 0.5%) was 0.048 and the “ABS 600.0 nm” value (substrate concentration 1%) was 0.268.

In the case of `CCCCCC(O)CCCCC` [6-Undecanol], the “ABS 600.0 nm” value [1] was 0.000**, the “ABS 600.0 nm” value [2] was 0.000** and the “ABS 600.0 nm” value (substrate concentration 0.063%) was 0.000**. For the same compound, the “ABS 600.0 nm” value (substrate concentration 0.13%) was 0.000**, the “ABS 600.0 nm” value (substrate concentration 0.25%) was 0.000** and the “ABS 600.0 nm” value (substrate concentration 0.5%) was 0.000**. The “ABS 600.0 nm” value (substrate concentration 1%) was 0.000**.

With `CCCCCCCCCCCCCCCCOC(=O)CCCCCCCC` [Hexadecyl pelargonate] the “ABS 600.0 nm” value [1] was 0.112, the “ABS 600.0 nm” value [2] was 0.095 and the “ABS 600.0 nm” value (substrate concentration 0.063%) was 0.075. The “ABS 600.0 nm” value (substrate concentration 0.13%) was 0.083, the “ABS 600.0 nm” value (substrate concentration 0.25%) was 0.103 and the “ABS 600.0 nm” value (substrate concentration 0.5%) was 0.102. The “ABS 600.0 nm” value (substrate concentration 1%) was 0.080.

For `C=CCCCCCCCCCC` [Dodecene], the “ABS 600.0 nm” value [1] was 0.088, the “ABS 600.0 nm” value [2] was 0.055 and the “ABS 600.0 nm” value (substrate concentration 0.063%) was 0.079. For the same compound, the “ABS 600.0 nm” value (substrate concentration 0.13%) was 0.050, the “ABS 600.0 nm” value (substrate concentration 0.25%) was 0.053 and the “ABS 600.0 nm” value (substrate concentration 0.5%) was 0.032. For the same compound, the “ABS 600.0 nm” value (substrate concentration 1%) was 0.026.

For `CCCCC(CC)C(=O)O` (stereo not shown) [2-Ethylhexanoic acid], the “ABS 600.0 nm” value [1] was 0.099, the “ABS 600.0 nm” value [2] was 0.051 and the “ABS 600.0 nm” value (substrate concentration 0.063%) was 0.000. The “ABS 600.0 nm” value (substrate concentration 0.13%) was 0.000, the “ABS 600.0 nm” value (substrate concentration 0.25%) was 0.000 and the “ABS 600.0 nm” value (substrate concentration 0.5%) was 0.000. For the same compound, the “ABS 600.0 nm” value (substrate concentration 1%) was 0.000.

For `CCCCCCCC/C=C\CCCCCCCCO` [HD-Ocenol, oleyl alcohol], the “ABS 600.0 nm” value [1] was 0.093, the “ABS 600.0 nm” value [2] was 0.087 and the “ABS 600.0 nm” value (substrate concentration 0.063%) was 0.076. For the same compound, the “ABS 600.0 nm” value (substrate concentration 0.13%) was 0.115, the “ABS 600.0 nm” value (substrate concentration 0.25%) was 0.097 and the “ABS 600.0 nm” value (substrate concentration 0.5%) was 0.085. For the same compound, the “ABS 600.0 nm” value (substrate concentration 1%) was 0.087.

`C/C=C/CCCCCC` [trans-2-nonene] was tested, and the “ABS 600.0 nm” value [1] was 0.112, the “ABS 600.0 nm” value [2] was 0.100 and the “ABS 600.0 nm” value (substrate concentration 0.063%) was 0.105. For the same compound, the “ABS 600.0 nm” value (substrate concentration 0.13%) was 0.066, the “ABS 600.0 nm” value (substrate concentration 0.25%) was 0.000 and the “ABS 600.0 nm” value (substrate concentration 0.5%) was 0.000. For the same compound, the “ABS 600.0 nm” value (substrate concentration 1%) was 0.000.

`CCCCCC/C=C/CCCCCC` [trans-7-tetradecene] was tested, and the “ABS 600.0 nm” value [1] was 0.117, the “ABS 600.0 nm” value [2] was 0.106 and the “ABS 600.0 nm” value (substrate concentration 0.063%) was 0.112. The “ABS 600.0 nm” value (substrate concentration 0.13%) was 0.104, the “ABS 600.0 nm” value (substrate concentration 0.25%) was 0.103 and the “ABS 600.0 nm” value (substrate concentration 0.5%) was 0.107. For the same compound, the “ABS 600.0 nm” value (substrate concentration 1%) was 0.095.

With `CCCCCC#CCCCCC` [6-Dodecyne] the “ABS 600.0 nm” value [1] was 0.125, the “ABS 600.0 nm” value [2] was 0.083 and the “ABS 600.0 nm” value (substrate concentration 0.063%) was 0.074. For the same compound, the “ABS 600.0 nm” value (substrate concentration 0.13%) was 0.071, the “ABS 600.0 nm” value (substrate concentration 0.25%) was 0.073 and the “ABS 600.0 nm” value (substrate concentration 0.5%) was 0.071. For the same compound, the “ABS 600.0 nm” value (substrate concentration 1%) was 0.066.

For `C=CCCCCCCCCCC` [C12 a-Olefin], the “ABS 600.0 nm” value [1] was 0.077, the “ABS 600.0 nm” value [2] was 0.119 and the “ABS 600.0 nm” value (substrate concentration 0.063%) was 0.119. For the same compound, the “ABS 600.0 nm” value (substrate concentration 0.13%) was 0.082, the “ABS 600.0 nm” value (substrate concentration 0.25%) was 0.080 and the “ABS 600.0 nm” value (substrate concentration 0.5%) was 0.080. For the same compound, the “ABS 600.0 nm” value (substrate concentration 1%) was 0.082.

— US7405063B2, “Biooxidation capabilities of Candida sp” (Cognis Corporation, priority 2000, dated 2008)
